Results published in article PMC4700033, “Synergistic properties of cellulases from Clostridium cellulovorans in the presence of cellobiose” (AMB Express, 2016).

Key:
Assay in all cases: DNS reducing sugar assay on acid-swollen cellulose
Assay type in all cases: biochemical
[1] = molecular target: T1, EngK (Clostridium cellulovorans, UniProt D9SS70); conditions: 5 mg/ml cellobiose; 0.5 % acid-swollen cellulose, 20 nmol/ml enzyme alone, 50 mM acetate pH 6.3, 2.5 mM CaCl2, 37 C; cellobiose also main product
T1 construct: gene Clocel_2821
T1 sequence (D9SS70 1-892 limits assumed): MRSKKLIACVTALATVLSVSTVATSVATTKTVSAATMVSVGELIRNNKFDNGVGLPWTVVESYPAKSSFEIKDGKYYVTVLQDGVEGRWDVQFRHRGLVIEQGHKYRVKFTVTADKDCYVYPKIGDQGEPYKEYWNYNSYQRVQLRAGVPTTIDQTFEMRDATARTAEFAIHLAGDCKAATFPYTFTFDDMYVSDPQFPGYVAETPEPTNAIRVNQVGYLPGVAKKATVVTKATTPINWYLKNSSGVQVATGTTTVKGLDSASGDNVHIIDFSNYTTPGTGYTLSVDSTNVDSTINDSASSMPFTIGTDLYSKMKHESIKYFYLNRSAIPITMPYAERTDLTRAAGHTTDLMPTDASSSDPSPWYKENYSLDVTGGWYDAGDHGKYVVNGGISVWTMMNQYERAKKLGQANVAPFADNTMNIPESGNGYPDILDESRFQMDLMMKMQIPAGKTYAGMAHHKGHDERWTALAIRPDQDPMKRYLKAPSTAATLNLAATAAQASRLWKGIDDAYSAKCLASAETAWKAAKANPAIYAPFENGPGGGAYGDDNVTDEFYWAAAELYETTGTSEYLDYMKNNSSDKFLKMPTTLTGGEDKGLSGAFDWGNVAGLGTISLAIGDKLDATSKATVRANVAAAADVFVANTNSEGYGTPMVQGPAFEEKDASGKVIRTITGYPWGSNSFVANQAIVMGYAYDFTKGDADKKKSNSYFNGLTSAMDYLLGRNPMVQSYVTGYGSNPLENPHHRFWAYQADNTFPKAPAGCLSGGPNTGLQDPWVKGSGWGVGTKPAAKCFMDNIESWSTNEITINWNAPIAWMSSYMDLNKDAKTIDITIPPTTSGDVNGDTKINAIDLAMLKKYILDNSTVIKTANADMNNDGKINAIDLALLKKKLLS
Excerpt: DNS reducing sugar assay on acid-swollen cellulose on EngK

[2] = molecular target: T2, EngH (Clostridium cellulovorans, UniProt O65987); conditions: 5 mg/ml cellobiose; 0.5 % acid-swollen cellulose, 20 nmol/ml enzyme alone, 50 mM acetate pH 6.3, 2.5 mM CaCl2, 37 C
T2 construct: HisTrap purified from supernatant; trigger factor tag removed by HRV-3C protease
T2 sequence (O65987 14-715): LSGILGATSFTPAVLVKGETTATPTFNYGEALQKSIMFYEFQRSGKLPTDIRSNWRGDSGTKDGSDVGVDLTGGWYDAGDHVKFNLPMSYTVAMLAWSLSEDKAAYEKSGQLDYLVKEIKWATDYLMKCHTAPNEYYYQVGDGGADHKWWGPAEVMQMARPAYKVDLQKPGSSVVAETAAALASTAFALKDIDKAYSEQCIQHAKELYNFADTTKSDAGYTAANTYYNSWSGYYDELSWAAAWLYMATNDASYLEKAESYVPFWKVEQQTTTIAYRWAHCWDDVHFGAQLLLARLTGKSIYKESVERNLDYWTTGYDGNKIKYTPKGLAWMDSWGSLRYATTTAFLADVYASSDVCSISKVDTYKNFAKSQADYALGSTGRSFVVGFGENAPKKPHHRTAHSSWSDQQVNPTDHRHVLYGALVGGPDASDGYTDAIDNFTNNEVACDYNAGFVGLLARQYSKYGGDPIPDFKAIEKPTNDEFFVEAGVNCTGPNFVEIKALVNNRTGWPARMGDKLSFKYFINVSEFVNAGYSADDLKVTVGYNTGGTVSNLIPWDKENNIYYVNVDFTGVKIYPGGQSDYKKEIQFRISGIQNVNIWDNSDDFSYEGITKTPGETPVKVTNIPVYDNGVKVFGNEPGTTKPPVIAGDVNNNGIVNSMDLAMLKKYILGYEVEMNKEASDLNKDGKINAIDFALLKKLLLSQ
Excerpt: DNS reducing sugar assay on acid-swollen cellulose on EngH

[3] = molecular target: T3, ExgS (Clostridium cellulovorans, UniProt D9SS72); conditions: 5 mg/ml cellobiose; 0.5 % acid-swollen cellulose, 20 nmol/ml enzyme alone, 50 mM acetate pH 6.3, 2.5 mM CaCl2, 37 C
T3 construct: gene Clocel_2823; dockerin-bearing cellulosomal subunit
T3 sequence (D9SS72 1-727): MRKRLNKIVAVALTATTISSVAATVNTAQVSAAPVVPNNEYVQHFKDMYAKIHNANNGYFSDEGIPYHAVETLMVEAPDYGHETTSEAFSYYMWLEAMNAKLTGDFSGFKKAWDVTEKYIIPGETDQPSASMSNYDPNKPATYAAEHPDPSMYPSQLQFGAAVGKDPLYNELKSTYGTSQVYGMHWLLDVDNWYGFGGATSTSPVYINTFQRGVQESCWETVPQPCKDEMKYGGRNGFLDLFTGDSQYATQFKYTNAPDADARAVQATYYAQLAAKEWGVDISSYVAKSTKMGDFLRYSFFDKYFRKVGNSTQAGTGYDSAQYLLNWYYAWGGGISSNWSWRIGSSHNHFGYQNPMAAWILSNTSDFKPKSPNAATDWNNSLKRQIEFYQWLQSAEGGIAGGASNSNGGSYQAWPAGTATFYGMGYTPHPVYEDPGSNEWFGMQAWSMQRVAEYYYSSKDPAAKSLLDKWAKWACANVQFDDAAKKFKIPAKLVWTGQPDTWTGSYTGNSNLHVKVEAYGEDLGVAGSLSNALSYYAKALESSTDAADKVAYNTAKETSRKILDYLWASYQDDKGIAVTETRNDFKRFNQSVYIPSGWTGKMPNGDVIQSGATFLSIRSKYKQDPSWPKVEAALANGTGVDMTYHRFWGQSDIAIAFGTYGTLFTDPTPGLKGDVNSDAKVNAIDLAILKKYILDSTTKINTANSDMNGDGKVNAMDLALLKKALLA
Excerpt: DNS reducing sugar assay on acid-swollen cellulose on ExgS

Inhibition rate (%) [1]: 90.1% | Inhibition rate (%) [2]: 98.7% | Inhibition rate (%) [3]: 98.5%
Compound: OC[C@H]1O[C@@H](O[C@H]2[C@H](O)[C@@H](O)C(O)O[C@@H]2CO)[C@H](O)[C@@H](O)[C@@H]1O (stereo partly drawn) [cellobiose]
